# What was measured:
# Assay type in all cases: in vivo
# Triticum aestivum = assay: Crop compatibility post-emergence, greenhouse pot test
# Experimental: (§1) Seeds of mono- and dicotyledonous weed plants and crop plants were laid out in sandy loam soil in plastic or wood-fiber pots, covered with soil and grown under controlled growth conditions in a greenhouse. 2 to 3 weeks after sowing, the trial plants were treated at the one-leaf stage. The compounds of the invention formulated in the form of wettable powders (WP) or as emulsion concentrates (EC) were then sprayed onto the green parts of the plant as an aqueous suspension or emulsion with addition of 0.5% additive at a water application rate equivalent to 600 L/ha. After the trial plants had stood for about 3 weeks in the greenhouse, under optimal growth conditions, the effect of the preparations was scored visually by comparison with untreated controls. For example, 100% efficacy=plants have died, 0% efficacy=like control plants.
# (§2) Crop plant compatibilities were also scored correspondingly.
# (§3) The effects observed are reported here on selected crop plants by comparison, with the untreated controls (values in %).
# Oryza sativa = assay: as above
# Experimental: as §1, §2, §3
# Digitaria sanguinalis = assay: Herbicidal action post-emergence, greenhouse pot test; conditions: application rate 20 g/ha
# Amaranthus retroflexus = assay: as above; conditions: application rate 20 g/ha
# Experimental: as §1, with “plants. Tables A1 to A16 below show the efficacies of selected compounds of the general formula (I) according to tables I.1 to I.50 on various harmful plants and an application rate corresponding to 80 g/ha or lower that were obtained by the aforementioned trial method.” for “plants.”
# Setaria viridis = assay: as above; conditions: application rate 20 g/ha
# Experimental: as §1, with “plants. Tables A1 to A16 below show the efficacies of selected compounds of the general formula (I) according to tables I.1 to I.50 on various harmful plants and an application rate corresponding to 80 g/ha or lower that were obtained by the aforementioned trial method.” for “plants.”
# Polygonum convolvulus = assay: as above; conditions: application rate 20 g/ha
# Experimental: as §1, with “plants. Tables A1 to A16 below show the efficacies of selected compounds of the general formula (I) according to tables I.1 to I.50 on various harmful plants and an application rate corresponding to 80 g/ha or lower that were obtained by the aforementioned trial method.” for “plants.”
# Viola tricolor = assay: as above; conditions: application rate 20 g/ha
# Experimental: as §1, with “plants. Tables A1 to A16 below show the efficacies of selected compounds of the general formula (I) according to tables I.1 to I.50 on various harmful plants and an application rate corresponding to 80 g/ha or lower that were obtained by the aforementioned trial method.” for “plants.”
# Pharbitis purpurea = assay: as above
# Experimental: as §1, with “plants. Tables A1 to A16 below show the efficacies of selected compounds of the general formula (I) according to tables I.1 to I.50 on various harmful plants and an application rate corresponding to 80 g/ha or lower that were obtained by the aforementioned trial method.” for “plants.”
# Matricaria inodora = assay: as above; conditions: application rate 20 g/ha
# Experimental: as §1, with “plants. Tables A1 to A16 below show the efficacies of selected compounds of the general formula (I) according to tables I.1 to I.50 on various harmful plants and an application rate corresponding to 80 g/ha or lower that were obtained by the aforementioned trial method.” for “plants.”
# Veronica persica = assay: as above; conditions: application rate 20 g/ha
# Experimental: as §1, with “plants. Tables A1 to A16 below show the efficacies of selected compounds of the general formula (I) according to tables I.1 to I.50 on various harmful plants and an application rate corresponding to 80 g/ha or lower that were obtained by the aforementioned trial method.” for “plants.”
# Abutilon theophrasti = assay: as above; conditions: application rate 20 g/ha
# Experimental: as §1, with “plants. Tables A1 to A16 below show the efficacies of selected compounds of the general formula (I) according to tables I.1 to I.50 on various harmful plants and an application rate corresponding to 80 g/ha or lower that were obtained by the aforementioned trial method.” for “plants.”
# Echinochloa crus-galli = assay: as above; conditions: application rate 20 g/ha
# Experimental: as §1, with “plants. Tables A1 to A16 below show the efficacies of selected compounds of the general formula (I) according to tables I.1 to I.50 on various harmful plants and an application rate corresponding to 80 g/ha or lower that were obtained by the aforementioned trial method.” for “plants.”
# Alopecurus myosuroides = assay: as above; conditions: application rate 20 g/ha, scored visually after about 3 weeks vs untreated controls
# Experimental: as §1, with “plants. Tables A1 to A16 below show the efficacies of selected compounds of the general formula (I) according to tables I.1 to I.50 on various harmful plants and an application rate corresponding to 80 g/ha or lower that were obtained by the aforementioned trial method.” for “plants.”
# Stellaria media = assay: as above; conditions: application rate 20 g/ha
# Experimental: as §1, with “plants. Tables A1 to A16 below show the efficacies of selected compounds of the general formula (I) according to tables I.1 to I.50 on various harmful plants and an application rate corresponding to 80 g/ha or lower that were obtained by the aforementioned trial method.” for “plants.”
# Lolium rigidum [1] = assay: as above; conditions: application rate 20 g/ha
# Experimental: as §1, with “plants. Tables A1 to A16 below show the efficacies of selected compounds of the general formula (I) according to tables I.1 to I.50 on various harmful plants and an application rate corresponding to 80 g/ha or lower that were obtained by the aforementioned trial method.” for “plants.”
# Zea mays = assay: Crop compatibility post-emergence, greenhouse pot test; conditions: application rate 20 g/ha
# Experimental: as §1, §2, §3
# Lolium rigidum [2] = assay: Herbicidal action pre-emergence, greenhouse pot test; conditions: application rate 320 g/ha
# Text: Seeds of mono- and dicotyledonous weeds and crop plants were laid out in plastic or organic plant pots and covered with soil. The compounds of the invention formulated in the form of wettable powders (WP) or as emulsion concentrates (EC) were then applied to the surface of the covering soil as an aqueous suspension or emulsion with addition of 0.5% additive at a water application rate equivalent to 600 L/ha. After the treatment, the pots were placed in a greenhouse and kept under good growth conditions for the test plants. After about 3 weeks, the efficacy of the preparations was scored visually as a percentage by comparison with untreated controls. For example, 100% efficacy=plants have died. 0% efficacy=like control plants. Tables B1 to B17 below show the efficacies of selected compounds of the general formula (I) according to tables I.1 to I.50 on various harmful plants and an application rate corresponding to 320 g/ha or lower that were obtained by the aforementioned trial method.
Structure (SMILES),Triticum aestivum (Efficacy in %) (Triticum aestivum; application rate 20 g/ha),Oryza sativa (Efficacy in %) (Oryza sativa; application rate 20 g/ha),Digitaria sanguinalis (Efficacy in %) (Digitaria sanguinalis),Amaranthus retroflexus (Efficacy in %) (Amaranthus retroflexus),Setaria viridis (Efficacy in %) (Setaria viridis),Polygonum convolvulus (Efficacy in %) (Polygonum convolvulus),Viola tricolor (Efficacy in %) (Viola tricolor),Pharbitis purpurea (Efficacy in %) (Pharbitis purpurea; application rate 20 g/ha),Matricaria inodora (Efficacy in %) (Matricaria inodora),Veronica persica (Efficacy in %) (Veronica persica),Abutilon theophrasti (Efficacy in %) (Abutilon theophrasti),Echinochloa crus-galli (Efficacy in %) (Echinochloa crus-galli),Triticum aestivum (Efficacy in %) (Triticum aestivum; application rate 5 g/ha),Alopecurus myosuroides (Efficacy in %) (Alopecurus myosuroides),Stellaria media (Efficacy in %) (Stellaria media),Pharbitis purpurea (Efficacy in %) (Pharbitis purpurea; application rate 5 g/ha),Oryza sativa (Efficacy in %) (Oryza sativa; application rate 5 g/ha),Lolium rigidum (Efficacy in %) (Lolium rigidum [1]),Zea mays (Efficacy in %) (Zea mays),Lolium rigidum (Efficacy in %) (Lolium rigidum [2])
CCCCC(Sc1cc(-n2c(=O)cc(C(F)(F)F)n(C)c2=O)c(F)cc1Cl)C(=O)OCCC(=O)OCC (stereo not drawn) [I.47-3],20%,20%,100%,100%,100%,100%,100%,100%,100%,100%,100%,80%,,,,,,,,
CCOC(=O)CCOC(=O)C(Sc1cc(-n2c(=O)cc(C(F)(F)F)n(C)c2=O)c(F)cc1Cl)C(C)CC (stereo not drawn) [I.5-3],,,80%,100%,100%,100%,100%,100%,100%,100%,100%,100%,20%,80%,100%,,,,,
CCOC(=O)CCOC(=O)C(CC)Sc1cc(-n2c(=O)c(C)c(C(F)(F)F)n(C)c2=O)c(F)cc1Cl (stereo not drawn) [I.12-3],20%,0%,100%,100%,100%,100%,100%,,,100%,100%,100%,,,100%,100%,,,,
CCC(C)C(Sc1cc(-n2c(=O)cc(C(F)(F)F)n(C)c2=O)c(F)cc1Cl)C(=O)OCCC(=O)OC (stereo not drawn) [I.5-2],,,80%,100%,100%,100%,100%,100%,100%,100%,100%,100%,20%,80%,100%,,,,,
CCNC(=O)CCOC(=O)C(C)Sc1cc(-n2c(=O)cc(C(F)(F)F)n(C)c2=O)c(F)cc1Cl (stereo not drawn) [I.1-153],,,100%,100%,100%,100%,100%,100%,100%,100%,100%,100%,,90%,100%,,10%,80%,,
CC(Sc1cc(-n2c(=O)cc(C(F)(F)F)n(C)c2=O)c(F)cc1Cl)C(=O)OCCC(=O)OCc1ccccc1 (stereo not drawn) [I.1-6],0%,0%,,100%,,,100%,,,100%,100%,,,,,,,,10%,
CCOC(=O)COC(=O)C(C)Sc1cc(-n2c(=O)cc(C(F)(F)F)n(C)c2=O)c(F)cc1Cl (stereo not drawn) [I.1-43],,,100%,100%,100%,100%,100%,100%,100%,100%,100%,100%,10%,80%,80%,,,,,
CCN(C)C(=O)CCOC(=O)C(C)Sc1cc(-n2c(=O)cc(C(F)(F)F)n(C)c2=O)c(F)cc1Cl (stereo not drawn) [I.1-233],,20%,100%,100%,100%,100%,100%,100%,100%,100%,100%,100%,,90%,100%,,,90%,,
CCCCOC(=O)COC(=O)CSc1cc(-n2c(=O)cc(C(F)(F)F)n(C)c2=O)c(F)cc1Cl [I.8-51],20%,0%,100%,100%,100%,100%,100%,100%,100%,100%,100%,90%,,,,,,,,
CC(Sc1cc(-n2c(=O)cc(C(F)(F)F)n(C)c2=O)c(F)cc1Cl)C(=O)OCCC(=O)OCC1CC1 (stereo not drawn) [I.1-7],,,,,,,,,,,,,,,,,,,,90%

# — US11274083B2, “Substituted thiophenyl uracils, salts thereof and the use thereof as herbicidal agents” (Syngenta Crop Protection AG, priority 2017, dated 2022)
